Tests used:
[1] = molecular target: T1, Alpha-1A adrenergic receptor (Homo sapiens, UniProt P35348); test: Activation of human alpha-1A adrenergic receptor expressed in rat-1 fibroblasts; format: functional
T1 sequence (P35348 whole entry): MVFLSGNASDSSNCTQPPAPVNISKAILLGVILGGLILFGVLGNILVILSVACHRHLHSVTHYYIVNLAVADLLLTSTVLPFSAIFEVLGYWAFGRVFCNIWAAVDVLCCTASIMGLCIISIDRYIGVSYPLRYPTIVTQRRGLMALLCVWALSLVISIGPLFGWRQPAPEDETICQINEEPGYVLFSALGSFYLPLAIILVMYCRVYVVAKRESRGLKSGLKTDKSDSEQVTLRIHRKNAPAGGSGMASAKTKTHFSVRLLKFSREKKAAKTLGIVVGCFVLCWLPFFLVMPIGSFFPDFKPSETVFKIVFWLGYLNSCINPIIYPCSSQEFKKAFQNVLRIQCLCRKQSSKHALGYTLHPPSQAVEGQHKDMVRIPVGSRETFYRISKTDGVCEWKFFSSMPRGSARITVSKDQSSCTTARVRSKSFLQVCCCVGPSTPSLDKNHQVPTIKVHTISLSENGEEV

[2] = molecular target: T2, Alpha-1D adrenergic receptor (Homo sapiens, UniProt P25100); test: Activation of human Alpha-1D adrenergic receptors expressed in rat-1 fibroblasts; format: functional
T2 sequence (P25100 whole entry): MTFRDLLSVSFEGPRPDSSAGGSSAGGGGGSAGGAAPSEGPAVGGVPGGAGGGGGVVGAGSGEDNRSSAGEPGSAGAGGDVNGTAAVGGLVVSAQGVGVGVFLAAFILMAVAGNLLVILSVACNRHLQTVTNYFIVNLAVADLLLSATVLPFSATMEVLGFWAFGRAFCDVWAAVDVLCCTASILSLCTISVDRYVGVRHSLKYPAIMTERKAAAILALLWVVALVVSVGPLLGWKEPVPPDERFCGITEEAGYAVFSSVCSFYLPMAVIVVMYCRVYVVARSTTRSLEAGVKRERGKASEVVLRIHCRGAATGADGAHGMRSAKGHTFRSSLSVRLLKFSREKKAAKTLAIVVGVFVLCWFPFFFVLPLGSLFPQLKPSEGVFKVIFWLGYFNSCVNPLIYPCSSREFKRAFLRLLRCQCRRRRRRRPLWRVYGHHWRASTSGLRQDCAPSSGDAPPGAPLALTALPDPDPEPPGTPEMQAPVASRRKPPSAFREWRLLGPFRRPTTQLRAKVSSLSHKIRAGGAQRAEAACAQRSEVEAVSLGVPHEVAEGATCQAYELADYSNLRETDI

[3] = molecular target: T3, Alpha-1A adrenergic receptor (Homo sapiens) (UniProt P35348); test: Activation of human alpha-1A adrenergic receptor expressed in rat-1 fibroblasts; expressed as a percent of the maximal effect of the phenylephrine; format: functional
T3 sequence (whole entry): T1 sequence (P35348 whole entry)

[4] = molecular target: T4, Alpha-1B adrenergic receptor (Homo sapiens, UniProt P35368); test: Activation of human alpha-1B adrenergic receptors expressed in rat-1 fibroblasts; format: functional
T4 sequence (P35368 whole entry): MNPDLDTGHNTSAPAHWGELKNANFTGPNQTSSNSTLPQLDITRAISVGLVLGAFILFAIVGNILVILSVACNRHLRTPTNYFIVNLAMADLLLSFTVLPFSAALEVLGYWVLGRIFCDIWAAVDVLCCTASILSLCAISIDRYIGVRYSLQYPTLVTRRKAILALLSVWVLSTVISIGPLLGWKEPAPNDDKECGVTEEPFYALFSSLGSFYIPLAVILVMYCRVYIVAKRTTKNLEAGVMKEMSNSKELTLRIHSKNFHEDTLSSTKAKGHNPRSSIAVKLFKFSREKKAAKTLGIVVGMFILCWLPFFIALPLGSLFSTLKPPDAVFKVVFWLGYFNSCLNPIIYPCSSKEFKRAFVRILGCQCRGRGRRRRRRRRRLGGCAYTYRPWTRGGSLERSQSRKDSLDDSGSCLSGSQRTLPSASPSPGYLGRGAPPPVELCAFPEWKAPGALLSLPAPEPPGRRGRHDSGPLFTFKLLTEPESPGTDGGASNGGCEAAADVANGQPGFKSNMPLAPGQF

[5] = molecular target: T5, Alpha-1D adrenergic receptor (Homo sapiens) (UniProt P25100); test: Activation of human alpha-1D-adrenoceptor receptor expressed in rat-1 fibroblasts relative to phenylephrine; format: functional
T5 sequence (whole entry): T2 sequence (P25100 whole entry)

[6] = Acid dissociation constant for the compound was determined; format: ADME
[7] = molecular target: T4, Alpha-1B adrenergic receptor; test: In vitro binding affinity against cloned human alpha-1B-adrenoceptor receptors expressed in rat-1 fibroblasts
[8] = molecular target: T6, Alpha-1B adrenergic receptor (Homo sapiens) (UniProt P35368); test: Activation of human alpha-1B-adrenoceptor receptors expressed in rat-1 fibroblasts as percent maximal effect relative to phenylephrine; format: functional
T6 sequence (whole entry): T4 sequence (P35368 whole entry)

[9] = molecular target: T2, Alpha-1D adrenergic receptor; test: In vitro binding affinity against cloned human alpha-1D-adrenoceptor receptors expressed in rat-1 fibroblasts
[10] = molecular target: T1, Alpha-1A adrenergic receptor; test: In vitro binding affinity against cloned human alpha-1A-adrenoceptor receptors expressed in rat-1 fibroblasts
[11] = molecular target: T7, Adrenergic receptor alpha-1 (Rattus norvegicus, UniProt P15823+P23944+P43140); test: Inhibition of binding of [3H]-prazosin at alpha1 adrenoceptors isolated from rat brain
T7 sequence (P15823 whole entry): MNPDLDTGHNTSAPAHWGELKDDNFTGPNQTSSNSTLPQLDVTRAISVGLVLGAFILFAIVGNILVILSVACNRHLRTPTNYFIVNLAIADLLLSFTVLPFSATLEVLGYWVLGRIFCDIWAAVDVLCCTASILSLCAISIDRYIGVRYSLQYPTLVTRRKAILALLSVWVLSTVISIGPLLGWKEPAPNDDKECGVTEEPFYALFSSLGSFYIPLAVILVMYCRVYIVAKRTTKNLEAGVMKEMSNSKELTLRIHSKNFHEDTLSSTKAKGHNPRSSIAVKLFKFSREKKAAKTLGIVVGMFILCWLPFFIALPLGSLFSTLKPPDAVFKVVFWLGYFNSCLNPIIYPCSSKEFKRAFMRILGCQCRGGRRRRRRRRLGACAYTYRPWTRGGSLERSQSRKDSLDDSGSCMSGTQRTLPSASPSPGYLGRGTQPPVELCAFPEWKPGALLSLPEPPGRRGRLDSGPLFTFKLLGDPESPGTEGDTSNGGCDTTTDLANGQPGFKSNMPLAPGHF
T7 sequence (P23944 whole entry): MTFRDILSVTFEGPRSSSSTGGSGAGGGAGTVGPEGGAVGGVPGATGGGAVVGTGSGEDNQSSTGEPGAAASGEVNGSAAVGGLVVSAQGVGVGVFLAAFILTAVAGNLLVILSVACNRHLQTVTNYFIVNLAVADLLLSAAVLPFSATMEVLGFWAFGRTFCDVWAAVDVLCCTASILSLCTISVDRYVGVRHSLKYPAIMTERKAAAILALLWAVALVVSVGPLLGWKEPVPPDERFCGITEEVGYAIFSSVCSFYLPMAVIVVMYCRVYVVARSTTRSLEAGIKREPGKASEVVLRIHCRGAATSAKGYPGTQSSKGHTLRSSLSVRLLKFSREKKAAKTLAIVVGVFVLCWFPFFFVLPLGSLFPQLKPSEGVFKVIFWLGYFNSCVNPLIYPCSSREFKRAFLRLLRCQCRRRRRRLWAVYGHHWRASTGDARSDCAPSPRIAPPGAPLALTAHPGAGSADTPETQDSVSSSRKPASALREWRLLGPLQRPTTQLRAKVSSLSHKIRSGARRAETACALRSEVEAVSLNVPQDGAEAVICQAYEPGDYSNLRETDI
T7 sequence (P43140 whole entry): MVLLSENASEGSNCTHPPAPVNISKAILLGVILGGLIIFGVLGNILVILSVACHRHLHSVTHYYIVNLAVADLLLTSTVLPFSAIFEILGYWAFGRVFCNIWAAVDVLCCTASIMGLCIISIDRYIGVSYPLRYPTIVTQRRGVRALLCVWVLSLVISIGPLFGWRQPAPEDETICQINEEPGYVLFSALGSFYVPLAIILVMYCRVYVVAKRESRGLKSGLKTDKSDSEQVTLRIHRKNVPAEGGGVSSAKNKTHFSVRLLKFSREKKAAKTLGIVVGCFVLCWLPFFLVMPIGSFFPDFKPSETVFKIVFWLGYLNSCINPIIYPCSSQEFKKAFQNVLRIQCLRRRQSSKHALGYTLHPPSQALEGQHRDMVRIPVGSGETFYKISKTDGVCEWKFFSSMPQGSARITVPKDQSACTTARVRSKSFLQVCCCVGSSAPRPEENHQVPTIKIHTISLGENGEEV

Compound	EC50 [1] [nM]	EC50 [2] [nM]	Max [3] [%]	EC50 [4] [nM]	Max [5] [%]	pKa [6]	IC50 [7] [nM]	Max [8] [%]	IC50 [9] [nM]	IC50 [10] [nM]	IC50 [11] [nM]
CS(=O)(=O)c1ccccc1NCC1=NCCN1	50.1	> 100000	105	> 100000	–	–	–	–	–	–	–
Oc1ccc2cccc(NCC3=NCCN3)c2c1	6.31	31.6	110	> 5010	53	–	–	–	–	–	–
c1ccc(-c2ccccc2OCC2=NCCN2)nc1	–	–	104	–	–	–	–	–	–	–	–
c1ccc(-c2cnco2)c(NCC2=NCCN2)c1	20	> 5010	107	> 5010	–	–	–	–	–	–	–
c1ccc(N2CCCCC2)c(NCC2=NCCN2)c1	12.6	> 5010	114	> 5010	–	–	–	–	–	–	–
CSc1ccccc1NCC1=NCCN1	5.01	7.94	105	2	55	10.3	219	105	19.5	107	–
Clc1cccc(Cl)c1NCc1c[nH]cn1	–	–	–	–	–	–	–	–	–	–	263
c1ccc(-c2cnco2)c(NCc2c[nH]cn2)c1	50.1	> 251	120	> 5010	51	–	–	–	–	–	–
CSc1ccccc1NCc1c[nH]cn1	–	–	94	–	36	–	–	78	–	–	–
c1ccc(-c2ccccc2OCc2c[nH]cn2)cc1	15.8	> 100000	102	> 100000	–	–	5890	–	933	302	–
CS(=O)(=O)c1ccccc1NCc1c[nH]cn1	126	> 100000	97	> 100000	–	–	–	–	–	–	–
c1ccc(-c2ccccc2OCC2=NCCN2)cc1	–	–	96	–	–	–	2400	–	550	66.1	–
Cc1ccc(C)c(OCc2c[nH]cn2)c1	–	–	–	–	–	–	–	–	–	–	102
COc1ccc(S(C)(=O)=O)c(NCC2=NCCN2)c1	12.6	> 100000	–	> 100000	–	–	–	–	–	–	–
CCN(CC)C(=O)c1ccccc1OCC1=NCCN1	> 100000	> 100000	–	> 100000	–	–	> 30200	–	> 30200	> 30200	–
CCN(CC)C(=O)c1ccccc1NCc1c[nH]cn1	63.1	> 5010	114	> 5010	–	–	–	–	–	–	–
c1ccc(-c2ccno2)c(OCc2c[nH]cn2)c1	158	> 100000	91	> 100000	–	–	–	–	–	–	–
CCCNC(=O)c1ccccc1NCC1=NCCN1	–	–	–	–	–	–	1700	–	513	282	–
Oc1ccc2cccc(NCc3c[nH]cn3)c2c1	63.1	> 5010	100	> 5010	–	–	–	–	–	–	–
CSc1ccccc1NCc1cnc[nH]1	10	20	–	25.1	–	6.5	891	–	57.5	170	–
CCCNC(=O)c1ccccc1NCc1c[nH]cn1	3.98	79.4	100	316	77	–	3020	89	871	77.6	–
CCN(CC)C(=O)c1ccccc1OCc1c[nH]cn1	> 100000	> 100000	–	> 100000	–	–	> 30200	–	> 30200	> 30200	–
c1ccc(N2CCCCC2)c(NCc2c[nH]cn2)c1	50.1	> 5010	95	> 5010	–	–	–	–	–	–	–
c1ccc(-c2ccno2)c(OCC2=NCCN2)c1	6.31	100	91	100	34	–	–	81	–	–	–
